Measurements as given in US11964984B2, “TXNIP-TRX complex inhibitors and methods of using the same” (CITY OF HOPE, priority 2020, dated 2024).

Columns and labels:
TNF-α mRNA = TNF-α mRNA expression in THP1 cells under 25 mM glucose (RT-PCR); format: cell-based, human; conditions: 72 hours, relatively higher concentrations needed than for TXNIP mRNA
Procedure: (§1) FIGS. 2A-2B. FIG. 2A: C30 and C38 inhibited TXNIP mRNA expression in THP1 cells. THP1 cells were cultured under 25 mM glucose with the indicated concentrations of compounds for 72 hours. Cells were then collected for total RNA preparation. RT-PCR was performed, and data shown are the mean±SEM from triplicates. Statistical analysis was performed using one-way ANOVA, *p<0.0001. FIG. 2B: C30 and C38 inhibited TNF-α mRNA expression in THP1 cells. THP1 cells were cultured under 25 mM glucose with various concentrations of compounds as indicated for 72 hours and collected for total RNA preparation. RT-PCR was performed, and data shown are the mean±SEM from triplicates. Statistical analysis was performed using one-way ANOVA: *<0.02; **<0.0001.
Treatment with both agents lead to lower levels of TNF-α mRNA, although this required relatively higher concentrations compared to those that suppressed TXNIP mRNA (see FIG. 2A).
(§2) RNA extraction and quantitative RT-PCR. RNA was extracted using the Direct-zol™ RNA MiniPrep Plus (Zymo Research). […] Diluted cDNA was quantified using real-time PCR performed with Power SYBR Green qPCR MasterMix (Applied Biosystem) and 7500 real-time PCR system (Applied Biosystems). […]

TXNIP mRNA [1] = assay: TXNIP mRNA expression in THP1 cells under 25 mM glucose (RT-PCR); format: cell-based, human; conditions: for TXNIP mRNA expression: concentration range
Procedure: as §1
FIG. 6. C38 analogues effects on TXNIP mRNA expression in THP1 cells. THP1 cells were cultured under 25 mM glucose with 2.5 uM of compounds for 72 h. Total RNA was collected. RT-PCR was performed in triplicate and data shown are the mean±SEM. Statistical analysis was performed using one-way ANOVA: *p<0.0001.
FIG. 7. C38 and analogue E2 effects on TXNIP mRNA levels in THP cells. THP1 cells were cultured under 25 mM glucose with several concentration of C38 and E2 as indicated for 72 hours. Total RNA was prepared. RT-PCR was performed in triplicate and data shown are the mean±SEM. Statistical analysis was performed for each column vs. without compound control using one-way ANOVA: *p<0.0001.
C30 and C38 inhibited TXNIP mRNA expression in THP1 cells.
Discovery of lead compound analogues. A search of chemical libraries was performed in the interest of identifying possible lead compound analogues. Analogues to C38 were identified. To determine the properties of the analogues, we treated THP1 cells with the E batch compounds for three days, prepared RNA and measured TXNIP mRNA levels.
RNA extraction and quantitative RT-PCR. RNA was extracted using the Direct-zol™ RNA MiniPrep Plus (Zymo Research). Reverse transcription of RNA samples into cDNA was performed using the GeneAmp RNA PCR Kit (Applied Biosystems), dNTP (from Roche Applied Science), Rnase inhibitor, MULV Reverse Transcriptase and Random hexamers reagent (all from Invitrogen). Diluted cDNA was quantified using real-time PCR performed with Power SYBR Green qPCR MasterMix (Applied Biosystem) and 7500 real-time PCR system (Applied Biosystems). The HPRT1 gene was used as an internal control.

SOD1 mRNA = SOD1 mRNA in primary human pancreatic islets under 25 mM glucose (RT-PCR); format: cell-based; conditions: human pancreatic islets (500 IEQ), 2.5 uM, 48 h
Procedure: (§3) FIGS. 12A-12B. […] Human pancreatic islets (500 IEQ) were cultured with PIM(R) (Prodo Labs) medium under 25 mM glucose with 2.5 uM of the indicated compounds for 48 h. Total RNA was collected. RT-PCR was performed in triplicate and data shown are the mean±SEM. Statistical analysis was performed using one-way ANOVA: *p<0.0001. […] Human pancreatic islets (500 IEQ) were cultured with PIM(R) (Prodo Labs) under 25 mM glucose with 2.5 uM of the indicated compounds for 48 h. Total RNA was collected. RT-PCR was performed in triplicate and data shown are the mean+SEM. Statistical analysis was performed using one-way ANOVA: *p<0.0001.
(§4) Testing lead compounds in human pancreatic islets. To further explore the effects of the lead compounds as possible therapies in diabetes, we conducted translational studies in primary human pancreatic islets (obtained from the City of Hope islet isolation center).
as §2

TXNIP mRNA [2] = assay: TXNIP mRNA in primary human pancreatic islets under 25 mM glucose (RT-PCR); format: cell-based; conditions: human pancreatic islets (500 IEQ), 2.5 uM, 48 h
Procedure: as §3, §4, §2

TXNIP mRNA [3] = assay: TXNIP mRNA expression in murine RAW macrophages (RT-PCR); format: cell-based, mouse; conditions: RAW264.7 cells, 25 mM glucose, 72 hours
Procedure: FIGS. 3A-3B. FIG. 3A: C30 and C38 inhibited TXNIP mRNA expression in murine RAW macrophages. RAW cells were cultured under 25 mM glucose with various concentration of C30 and C38 as indicated for 72 hours. Total RNA was prepared. RT-PCR was performed and data shown are the mean±SEM from triplicates. Statistical analysis was performed for each column vs. high glucose (HG) DMSO using one-way ANOVA: *p<0.0001. FIG. 3B: Treatment with C30 and C38 decreased TNF-α mRNA expression in murine RAW macrophages. RAW cells were cultured under 25 mM glucose with various concentration of C30 and C38 as indicated for 72 hours. Total RNA was prepared. RT-PCR was performed and data shown are the mean±SEM from triplicates. Statistical analysis was performed for each column vs. HG DMSO using one-way ANOVA: *p<0.0001.
Treatment of murine RAW macrophages with lead compounds C30 and C38 decreased TXNIP and TNF-α. We have also tested the effects of the lead compound in murine RAW264.7 (RAW) macrophages. As in human THP1 cells, C30 and C38 inhibited TXNIP and TNF-α mRNA expression in mouse RAW cells (FIGS. 3A-3B) showing they are also effective in mouse cells. […]
RNA extraction and quantitative RT-PCR. […] Diluted cDNA was quantified using real-time PCR performed with Power SYBR Green qPCR MasterMix (Applied Biosystem) and 7500 real-time PCR system (Applied Biosystems). […]

TXNIP mRNA [4] = assay: TXNIP mRNA in CD14+ monocytes from type 2 diabetic donors (RT-qPCR); format: cell-based, human; conditions: CD14+ monocytes of T2D donors, 5 uM, 45 hours, ex vivo
Procedure: FIG. 20. Several lead compounds suppress TXNIP mRNA in T2D monocytes. CD14^+ monocytes were isolated from T2D patient peripheral blood mononuclear cells (PBMCs) and cultured in RPMI 1640 medium with 5 uM of C30 or C38 for 45 hours. Total RNA was collected. RT-PCR was performed in triplicates and data shown are the mean±SEM. Statistical analysis was performed using one-way ANOVA: *p<0.0001.
Anti-inflammatory (protective) effects of lead compounds in monocytes isolated from peripheral blood obtained from type 2 diabetic subjects. In accordance with an approved IRB protocol and our published methods, we isolated CD14+ monocytes from the peripheral blood of two donors with documented type 2 diabetes (T2D). These monocytes were cultured in vitro with vehicle, 5 uM C30 or C38, and levels of human TXNIP transcript assessed by RT-qPCR.

Row | Compound | TNF-α mRNA expression (TNF-α mRNA) | concentration at which inhibition of TXNIP mRNA is still effective (TXNIP mRNA [1]; 72 hours) [µM] | TXNIP mRNA expression (TXNIP mRNA [1]; 72 hours) | SOD1 mRNA levels (SOD1 mRNA) | TXNIP mRNA (TXNIP mRNA [2]) | TXNIP mRNA expression (TXNIP mRNA [3]) | expression of TXNIP (TXNIP mRNA [4]) | TXNIP mRNA expression (C38 analogues screen) (TXNIP mRNA [1]; 2.5 uM compound, 72 h)
1 | COc1cc(N2CC[C@@H](c3ccc4ccccc4c3)[C@H](O)C2)nc(N)n1 [Compound C30] | reduced TNF-α expression | 0.15 | inhibit TXNIP expression in a dose-dependent manner | does not alter SOD1 mRNA levels | target TXNIP mRNA | inhibited | can inhibit the expression of TXNIP | 
2 | c1ccc(CCNc2ncnc3c2oc2ccccc23)cc1 [Compound C38] | reduced TNF-α expression |  | inhibit TXNIP expression in a dose-dependent manner | does not alter SOD1 mRNA levels | target TXNIP mRNA | inhibited | can inhibit the expression of TXNIP | strongly inhibited TXNIP mRNA expression
